Test results as given in patent US20250231185A1, “Coronavirus T Cell Epitopes, Megapools and Uses Thereof” (La Jolla Institute for Immunology, priority 2021, published 2025).
Entries after “also recorded” stand apart in the source; their conditions may differ. Read-outs that look alike come from different tables or passages of the source.

How the values were obtained:
CD4+ T cells = conditions: cited from earlier work; for Allele(s): HLA class II allele(s) identified as MHC restriction elements of the CD4 epitope; for Restriction: T cell subset (CD4 or CD8) recognizing the SARS-CoV-2 epitope; for Allele(s) (HLA restriction): CD4-restricted epitopes, HLA class II alleles identified as MHC restriction elements
CD8+ T cells [1] = test: Meta-analysis of published SARS-CoV-2 CD8 T cell epitope data curated in the IEDB (25 studies); type: cell-based, human; conditions: for Dominant: dominant = recognized by 3 or more donors/different studies
CD8+ T cells [2] = conditions: cited from earlier work
[3] = SARS-CoV-2-derived CD4 epitopes, Yes = recognized by 3 or more donors/different studies
[4] = SARS-CoV-2 Ag S, T cell type recognizing the epitope
[5] = SARS-CoV-2-derived CD8 epitopes
[6] = T cell type (CD4 or CD8) recognizing the SARS-CoV-2 epitope

Substance: 20 (MWLSYFIASFRLFAR) [compound 20]
- Allele(s) (CD4+ T cells): DQB1*02:01, DQB1*05:01,; also recorded: DQB1*05:02, DQB1*05:03,; also recorded: DRB1*03:01, DRB1*14:01,; also recorded: DRB1*14:06, DRB1*16:01,; also recorded: DRB1*16:02
- Dominant (CD4+ T cells; [3]): Yes (more dominant epitopes are defined by being recognized by 3 or more donors/different studies)
- Restriction (CD4+ T cells): CD4

Substance: 253 (YIINLIIKNLSKSLT) [compound 253]
- Allele(s) (HLA restriction) (CD4+ T cells): DRB1*11:02, DRB1*13:03

Substance: 93 (GMEVTPSGTWLTYTG) [compound 93]
- Restriction (CD4+ T cells): CD4

Substance: 115 (IATNGPLKVGGSCVL) [compound 115]
- Allele(s) (CD4+ T cells): DRB1*13:02
- Restriction (CD4+ T cells): CD4

Substance: 51 (NAPRITFGGPSDSTG) [compound 51]
- Allele(s) (CD4+ T cells): DQB1*03:01
- Restriction (CD4+ T cells): CD4

Substance: 18 (AIAMACLVGLMWLSY) [compound 18]
- Restriction (CD4+ T cells): CD4

Substance: 15 (VLAAVYRINWITGGI) [compound 15]
- Allele(s) (CD4+ T cells): DQB1*05:01, DQB1*05:03,; also recorded: DRB1*12:02, DRB1*14:01
- Dominant (CD4+ T cells; [3]): Yes (more dominant epitopes are defined by being recognized by 3 or more donors/different studies)
- Restriction (CD4+ T cells): CD4

Substance: 257 (VKHVYQLRARSVSPK) [compound 257]
- Allele(s) (HLA restriction) (CD4+ T cells): DRB1*01:03, DRB1*07:01

Substance: 106 (AADLDDFSKQLQQSM) [compound 106]
- Restriction (CD4+ T cells): CD4

Substance: 103 (QKKQQTVTLLPAADL) [compound 103]
- Allele(s) (CD4+ T cells): DRB1*01:02
- Restriction (CD4+ T cells): CD4

Substance: 37 (IKDLPKEITVATSRT) [compound 37]
- Dominant (CD4+ T cells; [3]): Yes (more dominant epitopes are defined by being recognized by 3 or more donors/different studies)
- Restriction (CD4+ T cells): CD4

Substance: 54 (SWFTALTQHGKEDLK) [compound 54]
- Dominant (CD4+ T cells; [3]): Yes (more dominant epitopes are defined by being recognized by 3 or more donors/different studies)
- Restriction (CD4+ T cells): CD4

Substance: 55 (LTQHGKEDLKFPRGQ) [compound 55]
- Restriction (CD4+ T cells): CD4

Substance: 9 (WICLLQFAYANRNRF) [compound 9]
- Allele(s) (CD4+ T cells): DQB1*05:03, DRB1*03:01,; also recorded: DRB1*14:01
- Restriction (CD4+ T cells): CD4

Substance: 40 (TSRTLSYYKLGASQRVA) [compound 40]
- Dominant (CD4+ T cells; [3]): Yes (more dominant epitopes are defined by being recognized by 3 or more donors/different studies)
- Restriction (CD4+ T cells): CD4

Substance: 30 (GAVILRGHLRIAGHHLGR) [compound 30]
- Dominant (CD4+ T cells; [3]): Yes (more dominant epitopes are defined by being recognized by 3 or more donors/different studies)
- Restriction (CD4+ T cells): CD4

Substance: 1 (SEETGTLIVNSVLLF) [compound 1]
- Allele(s) (CD4+ T cells): DQB1*03:01
- Restriction (CD4+ T cells): CD4

Substance: 85 (LIRQGTDYKHWPQIA) [compound 85]
- Dominant (CD4+ T cells; [3]): Yes (more dominant epitopes are defined by being recognized by 3 or more donors/different studies)
- Restriction (CD4+ T cells): CD4

Substance: 91 (AFFGMSRIGMEVTPS) [compound 91]
- Restriction (CD4+ T cells): CD4

Substance: 87 (YKHWPQIAQFAPSAS) [compound 87]
- Dominant (CD4+ T cells; [3]): Yes (more dominant epitopes are defined by being recognized by 3 or more donors/different studies)
- Restriction (CD4+ T cells): CD4

Substance: 258 (QEEVQELYSPIFLIV) [compound 258]
- Dominant (CD4+ T cells; CD4 epitopes, dominant = recognized by 3 or more donors/different studies): Yes (more dominant epitopes are defined by being recognized by 3 or more donors/different studies)

Substance: 86 (TDYKHWPQIAQFAPS) [compound 86]
- Restriction (CD4+ T cells): CD4

Substance: 8 (FLFLTWICLLQFAYA) [compound 8]
- Allele(s) (CD4+ T cells): DQB1*05:01, DQB1*05:03,; also recorded: DRB1*01:02
- Restriction (CD4+ T cells): CD4

Substance: YLQPRTFLL [SEQ ID NO: 1481]
- found to be positive in independent studies (CD8+ T cells [1]; overall, all curated studies): 11 independent studies
- recognized in subjects (CD8+ T cells [2]; Ferretti et al., 67% of the subjects tested): ≥ 3 subjects
- IFN-f response (CD8+ T cells [2]; Habel et al., 14 peptides screened, HLA-A*02:01): strongest
- detected in HLA-A2+ individuals (CD8+ T cells [2]; Nielsen study, HLA-A*02:01): 81%
- responses detected in patients (CD8+ T cells [2]; Rha et al., 37 of 112 and 2 of 40 patients): 33%
- MHC class I multimer+ cells in unexposed subjects (CD8+ T cells [2]; Rha et al.): not detected
- dominance as reported (CD8+ T cells [2]; Sahin et al.): most dominant epitope

Substance: 1361 (FTISVTTEIL) [compound 1361]
- Dominant (CD8+ T cells [1]; SARS-CoV-2 Ag S, CD8 epitopes): Yes (more dominant epitopes are defined by being recognized by 3 or more donors/different studies)
- Restriction (CD8+ T cells [2]; [4]): CD8

Substance: 1367 (LLQYGSFCT) [compound 1367]
- Dominant (CD8+ T cells [1]; SARS-CoV-2 Ag S, CD8 epitopes): Yes (more dominant epitopes are defined by being recognized by 3 or more donors/different studies)
- Restriction (CD8+ T cells [2]; [4]): CD8

Substance: 1065 (MMISAGFSL) [compound 1065]
- Dominant (CD8+ T cells [1]; [5]): Yes (more dominant epitopes are defined by being recognized by 3 or more donors/different studies)
- Restriction (CD8+ T cells [2]; [6]): CD8

Substance: 920 (TVLSFCAFAV) [compound 920]
- Dominant (CD8+ T cells [1]; [5]): Yes (more dominant epitopes are defined by being recognized by 3 or more donors/different studies)
- Restriction (CD8+ T cells [2]; [6]): CD8

Substance: 901 (NTCDGTTFTY) [compound 901]
- Dominant (CD8+ T cells [1]; [5]): Yes (more dominant epitopes are defined by being recognized by 3 or more donors/different studies)
- Restriction (CD8+ T cells [2]; [6]): CD8

Substance: 909 (ALRANSAVK) [compound 909]
- Dominant (CD8+ T cells [1]; [5]): Yes (more dominant epitopes are defined by being recognized by 3 or more donors/different studies)
- Restriction (CD8+ T cells [2]; [6]): CD8

Substance: 1029 (KLNVGDYFV) [compound 1029]
- Dominant (CD8+ T cells [1]; [5]): Yes (more dominant epitopes are defined by being recognized by 3 or more donors/different studies)
- Restriction (CD8+ T cells [2]; [6]): CD8

Substance: 1379 (LLFNKVTLA) [compound 1379]
- Dominant (CD8+ T cells [1]; SARS-CoV-2 Ag S, CD8 epitopes): Yes (more dominant epitopes are defined by being recognized by 3 or more donors/different studies)
- Restriction (CD8+ T cells [2]; [4]): CD8

Substance: 922 (DLKGKYVQI) [compound 922]
- Dominant (CD8+ T cells [1]; [5]): Yes (more dominant epitopes are defined by being recognized by 3 or more donors/different studies)
- Restriction (CD8+ T cells [2]; [6]): CD8

Substance: 1315 (FQPTNGVGY) [compound 1315]
- Dominant (CD8+ T cells [1]; SARS-CoV-2 Ag S, CD8 epitopes): Yes (more dominant epitopes are defined by being recognized by 3 or more donors/different studies)
- Restriction (CD8+ T cells [2]; [4]): CD8

Substance: 1087 (KMQRMLLEK) [compound 1087]
- Dominant (CD8+ T cells [1]; [5]): Yes (more dominant epitopes are defined by being recognized by 3 or more donors/different studies)
- Restriction (CD8+ T cells [2]; [6]): CD8

Substance: 1056 (IEYPIIGDEL) [compound 1056]
- Dominant (CD8+ T cells [1]; [5]): Yes (more dominant epitopes are defined by being recognized by 3 or more donors/different studies)
- Restriction (CD8+ T cells [2]; [6]): CD8

Substance: 1462 (KWPWYIWLGF) [compound 1462]
- Dominant (CD8+ T cells [1]; SARS-CoV-2 Ag S, CD8 epitopes): Yes (more dominant epitopes are defined by being recognized by 3 or more donors/different studies)
- Restriction (CD8+ T cells [2]; [4]): CD8

Substance: 1012 (LYLQYIRKL) [compound 1012]
- Dominant (CD8+ T cells [1]; [5]): Yes (more dominant epitopes are defined by being recognized by 3 or more donors/different studies)
- Restriction (CD8+ T cells [2]; [6]): CD8

Substance: 914 (VTDTPKGPK) [compound 914]
- Dominant (CD8+ T cells [1]; [5]): Yes (more dominant epitopes are defined by being recognized by 3 or more donors/different studies)
- Restriction (CD8+ T cells [2]; [6]): CD8

Substance: 939 (LLMPILTLT) [compound 939]
- Dominant (CD8+ T cells [1]; [5]): Yes (more dominant epitopes are defined by being recognized by 3 or more donors/different studies)
- Restriction (CD8+ T cells [2]; [6]): CD8

Substance: 1321 (SFELLHAPATV) [compound 1321]
- Dominant (CD8+ T cells [1]; SARS-CoV-2 Ag S, CD8 epitopes): Yes (more dominant epitopes are defined by being recognized by 3 or more donors/different studies)
- Restriction (CD8+ T cells [2]; [4]): CD8

Substance: 1350 (SVASQSIIAY) [compound 1350]
- Dominant (CD8+ T cells [1]; SARS-CoV-2 Ag S, CD8 epitopes): Yes (more dominant epitopes are defined by being recognized by 3 or more donors/different studies)
- Restriction (CD8+ T cells [2]; [4]): CD8

Substance: 1082 (LLLDDFVEII) [compound 1082]
- Dominant (CD8+ T cells [1]; [5]): Yes (more dominant epitopes are defined by being recognized by 3 or more donors/different studies)
- Restriction (CD8+ T cells [2]; [6]): CD8

Substance: 1362 (TEILPVSMTK) [compound 1362]
- Dominant (CD8+ T cells [1]; SARS-CoV-2 Ag S, CD8 epitopes): Yes (more dominant epitopes are defined by being recognized by 3 or more donors/different studies)
- Restriction (CD8+ T cells [2]; [4]): CD8

Substance: 1085 (GVAMPNLYK) [compound 1085]
- Dominant (CD8+ T cells [1]; [5]): Yes (more dominant epitopes are defined by being recognized by 3 or more donors/different studies)
- Restriction (CD8+ T cells [2]; [6]): CD8

Substance: 1453 (NLNESLIDL) [compound 1453]
- Dominant (CD8+ T cells [1]; SARS-CoV-2 Ag S, CD8 epitopes): Yes (more dominant epitopes are defined by being recognized by 3 or more donors/different studies)
- Restriction (CD8+ T cells [2]; [4]): CD8

Substance: 1428 (APHGVVFLHV) [compound 1428]
- Dominant (CD8+ T cells [1]; SARS-CoV-2 Ag S, CD8 epitopes): Yes (more dominant epitopes are defined by being recognized by 3 or more donors/different studies)
- Restriction (CD8+ T cells [2]; [4]): CD8

Substance: 989 (MVMCGGSLYV) [compound 989]
- Dominant (CD8+ T cells [1]; [5]): Yes (more dominant epitopes are defined by being recognized by 3 or more donors/different studies)
- Restriction (CD8+ T cells [2]; [6]): CD8

Substance: 1401 (AQALNTLVKQL) [compound 1401]
- Dominant (CD8+ T cells [1]; SARS-CoV-2 Ag S, CD8 epitopes): Yes (more dominant epitopes are defined by being recognized by 3 or more donors/different studies)
- Restriction (CD8+ T cells [2]; [4]): CD8

Substance: 1452 (RLNEVAKNL) [compound 1452]
- Dominant (CD8+ T cells [1]; SARS-CoV-2 Ag S, CD8 epitopes): Yes (more dominant epitopes are defined by being recognized by 3 or more donors/different studies)
- Restriction (CD8+ T cells [2]; [4]): CD8

Substance: 964 (RQLLFVVEV) [compound 964]
- Dominant (CD8+ T cells [1]; [5]): Yes (more dominant epitopes are defined by being recognized by 3 or more donors/different studies)
- Restriction (CD8+ T cells [2]; [6]): CD8

Substance: 1422 (HLMSFPQSA) [compound 1422]
- Dominant (CD8+ T cells [1]; SARS-CoV-2 Ag S, CD8 epitopes): Yes (more dominant epitopes are defined by being recognized by 3 or more donors/different studies)
- Restriction (CD8+ T cells [2]; [4]): CD8

Substance: 1324 (GPKKSTNLV) [compound 1324]
- Dominant (CD8+ T cells [1]; SARS-CoV-2 Ag S, CD8 epitopes): Yes (more dominant epitopes are defined by being recognized by 3 or more donors/different studies)
- Restriction (CD8+ T cells [2]; [4]): CD8

Substance: 992 (DTDFVNEFY) [compound 992]
- Dominant (CD8+ T cells [1]; [5]): Yes (more dominant epitopes are defined by being recognized by 3 or more donors/different studies)
- Restriction (CD8+ T cells [2]; [6]): CD8
